Among the data in PubChem BioAssay AID1963597 (National Center for Advancing Translational Sciences (NCATS), 2024) are half-life values, retold here.

This series deals with human liver microsomes, metabolic stability half-life. Put plainly: NCATS Human Liver Microsomal (HLM) Stability Profiling. The settings on record: higher = more stable; screened at 1 µM (by protocol). The method, boiled down:
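Substrate depletion (in vitro t1/2): 1 µM compound with 0.5 mg/mL microsomes and NADPH regenerating system, phosphate buffer pH 7.4, 37 °C. Sampled at 0, 5, 10, 15, 30, 60 min into cold acetonitrile with albendazole internal standard for MS quantification.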

SMILES strings stand for the structures. Residues, ends and D or L forms follow the SMILES beside them. *: point of attachment. Hexanoyl = CCCCCC(=O)* A value given as a limit tells only on which side of the number the result lay.

Consider `O=C(CO)N1CCC(c2[nH]nc(-c3ccc(Cl)cc3)c2-c2ccncn2)CC1`, for which the half-life is above 120 min.
Molecule `O=C(O)c1ccc(Nc2ncc3c(n2)-c2ccc(Cl)cc2C(c2c(F)cccc2F)=NC3)cc1` gave a half-life of 46.9 min.
To `CCCCNc1ncc2c(-c3ccc(F)cc3)nn(CC3CCC(N)CC3)c2n1` (centres undefined) belongs above 120 min; to `COc1cc(C)c(/C=C/C(C)=C/C=C/C(C)=C/C(=O)O)c(C)c1C`, 32 min; to `Cc1c(NC(=O)c2ccc(N3CCC(C)CC3)c([N+](=O)[O-])c2)cccc1-c1nc2ccccc2o1`, 30.7 min.
`CCCc1nc(C(C)(C)O)c(C(=O)O)n1Cc1ccc(-c2ccccc2-c2nn[nH]n2)cc1` yielded a half-life above 120 min.
To `Nc1ncnc2c1ncn2[C@@H]1O[C@H](CO)[C@@H](O)[C@@H]1O` belongs above 120 min; to `CCOC(=O)NNc1nncc2ccccc12`, 97.1 min.
Take `CNc1ccc2oc(C[C@H]3O[C@@]4(CC[C@H]3C)O[C@H](C(C)C(=O)c3ccc[nH]3)[C@H](C)C[C@H]4C)nc2c1C(=O)O` (some centres undefined): the half-life is above 120 min.
The molecule `COc1ccc(CNC(=O)c2cnn(-c3ccc(C)cc3)c2C2CCN(C(=O)OC(C)(C)C)CC2)cc1` came in with a half-life of 0.7 min.
Take `COc1cc2nc(=NC(=O)c3cccnc3)n3c(c2cc1OC)NCC3`: the half-life is 45 min.
Turning to `CCC[C@H](N[C@H]1CCc2cc(F)cc(F)c2C1)C(=O)Nc1cn(C(C)(C)CNCC(C)(C)C)cn1`, the half-life is 3.12 min.
To `C[C@]12CC[C@H]3[C@@H](CCC4=CC(=O)CC[C@@]43C)[C@@H]1CC[C@@H]2C(=O)O` belongs above 120 min.
The same measure for `Cc1ccc2c(c1)C(=O)[C@]1(O)CCN(c3ccccc3)C1=N2`: 1.71 min.
Molecule `CN(C)c1cccc(Oc2cnc(Nc3cccc(O)c3)nc2)c1` had a half-life of 21.9 min.
Molecule `Cc1cccc(C)c1NC(=O)CN1CCCC1` showed a half-life above 120 min.
The same measure for `CCOP(=S)(OCC)Oc1nc(Cl)n(C(C)C)n1`: 15.1 min; for `Nc1ccc(N=Nc2ccccc2)c(N)n1`: 7.45 min; for `CC1(c2ccccc2)N(Cc2ccccc2)C(=O)OC12CCN(Cc1ccc(C(=O)O)cc1)CC2` (centres undefined): above 120 min.
As for `O[C@@H]1CO[C@H]2[C@@H]1OC[C@@H]2O`, the half-life was above 120 min.
In the case of `O=C(N[C@H]1CN2CCC1CC2)c1cc2cccc(Cl)c2s1`, the half-life is above 120 min.
The same measure for `COc1ccc2c(c1)CC[C@@H](CN(C)CC(=O)O)[C@H]2c1ccccc1`: above 120 min; for `C=Cc1ccc(Cn2c(SCC(=O)N3CCN(c4ccc(F)cc4)CC3)nc3ccccc32)cc1`: 2.42 min.
For `C[C@]12CCC(=O)C=C1[C@@H]1C[C@@H]1[C@H]1[C@@H]3[C@@H]4C[C@@H]4[C@@]4(CCC(=O)O4)[C@@]3(C)CC[C@@H]12`, the half-life is above 120 min.
`CCOc1cc(CNC(=O)c2ccc(C)c(NC(=O)c3nsc4ccccc34)c2)ccc1OC` registered a half-life of 7.12 min.
To `CCN1CCCC1=O` belongs above 120 min.
As for `O=C(Nc1ccccc1Br)NC1CCN(c2ccc(C(F)(F)F)cn2)C1` (centres undefined), the half-life is 120 min.
The same measure for `CCCCC(=O)O[C@]1(C(=O)CO)[C@@H](C)C[C@H]2[C@@H]3CCC4=CC(=O)C=C[C@]4(C)[C@@]3(F)[C@@H](O)C[C@@]21C`: 4.35 min; for `CCN1CCC[C@H]1CNC(=O)c1c(O)c(Cl)cc(Cl)c1OC`: above 120 min.
The same measure for `CN1CCC(Nc2ncc3ncnc(Nc4ccc(F)c(Cl)c4)c3n2)CC1`: 116 min.
To `Fc1ccccc1-c1nc2ccn(Cc3ccc(-c4ccc(C(F)(F)F)cc4C(F)(F)F)nn3)cc-2n1` belongs above 120 min; to `Nc1cccc(CNC(=O)c2ccc(Oc3ccc(OCc4cccc(F)c4)cc3)nc2)c1`, 29.7 min.
In turn, `CC[C@]1(O)C[C@@H]2CN(CCc3c([nH]c4ccccc34)[C@@](C(=O)OC)(c3cc4c(cc3OC)N(C)[C@H]3[C@@](O)(C(=O)OC)[C@H](OC(C)=O)[C@]5(CC)C=CCN6CC[C@]43[C@@H]65)C2)C1` had a half-life of 54.6 min.
Consider `Cc1cc(=O)n(-c2ccccc2)n1C`, for which the half-life was above 120 min.
Molecule `O=C1c2ccccc2C(=O)C1C(=O)C(c1ccccc1)c1ccccc1` yielded a half-life above 120 min.
The same measure for `CN1CCN(C(=O)c2ccc3nccn3c2)CC1`: above 120 min.
Regarding `CCOc1ccc(-n2c(C(C)N(Cc3cccnc3)C(=O)Cc3ccc(F)c(C(F)(F)F)c3)nc3ncccc3c2=O)cc1` (centres undefined), the half-life was 4.89 min.
Molecule `CC(C)(C)c1ccc(C(=O)CCCCl)cc1` had a half-life of 3.84 min.
As for `COc1cc(C(=O)OC(COCCC(C)C)CN2CCOCC2)cc(OC)c1OC` (centres undefined), the half-life was 2.43 min.
The same measure for `C(#Cc1cccc(CN2CCOCC2)c1)CCN1CCCCC1`: above 120 min; for `CCCCCC(=O)N1CCC[C@H]1C(=O)N[C@@H](Cc1ccc(O)cc1)C(=O)OC` (Hexanoyl-Pro-Tyr-OMe): 7.74 min; for `O=C1N(c2ccccc2)c2ccccc2C1(Cc1ccncc1)Cc1ccncc1`: 1.71 min.
`CN(C)N(C)C(=O)[C@@]1(Cc2ccccc2)CCCN(C(=O)[C@@H](Cc2c[nH]c3ccccc23)NC(=O)C(C)(C)N)C1` had a half-life of 12.6 min.
`CN1CC(O)c2cc(N=NC(N)=O)c(O)cc21` (centres undefined) registered a half-life above 120 min.
The same measure for `COc1cc(C)c(Sc2cnc(NC(=O)c3ccc(CNC(C)C(C)C)cc3)s2)cc1C(=O)N1CCN(C(C)=O)CC1` (centres undefined): 8.06 min; for `CN1C(=O)COc2c(C(=O)NC3CN4CCC3CC4)cc(Cl)cc21` (centres undefined): above 120 min.
`Nc1c(Br)cc(Br)cc1CNC1CCC(O)CC1` (centres undefined) gave a half-life of 110 min.
For the molecule `COc1ccc(Oc2c(Cl)cnn(-c3cc(C)cc(C)c3)c2=O)cc1`, the half-life turned out to be 17.4 min.
For the molecule `CN1CCC2=C(C1)c1ccccc1Cc1ccccc12`, the half-life worked out at 95 min.
To `N#Cc1cccc(C(=O)Nc2ccc3ncnc(N4CCCCC4)c3c2)c1` belongs 12.4 min.
`CCN(CC)CCCCCCNc1cc(OC)cc2c(C)ccnc12` yielded a half-life above 120 min.
Molecule `COc1ccncc1C(=O)NC(=O)Nc1ccc(-c2ccccc2)c(C(F)(F)F)c1` registered a half-life above 120 min.
On to `CCOc1ccc(CNC(=O)Cn2c(=O)c3cccn3c3ccc(F)cc32)cc1OC`, for which the half-life was 80.7 min.
The same measure for `COc1ccc(-c2cc3onc(-c4ccncc4)c3c(=O)n2C)cc1`: above 120 min.
The molecule `C[C@@]1(c2cc(-c3cncnc3)c(F)cc2F)CCSC(N)=N1` showed a half-life above 120 min.
The same measure for `COc1ccc([C@@H]2Sc3ccccc3NC(=O)[C@@H]2O)cc1`: 67.5 min; for `O=C(O)c1ccccc1-c1c2cc(Br)c(=O)c(Br)c-2oc2c(Br)c(O)c(Br)cc12`: above 120 min; for `O=C(CCNc1c(-c2cccc(F)c2)nc2cnccn12)N1CCCC1`: 4.93 min.
In turn, `Nc1c(I)cc(I)c(C(=O)N(CCC(=O)O)c2ccccc2)c1I` registered a half-life above 120 min.
Consider `C[C@H]1CN(CC[C@H](O)C2CCCCC2)CC[C@@]1(C)c1cccc(O)c1`, for which the half-life was found to be 6.75 min.
The same measure for `Cc1noc(C)c1-c1cc(O)cc(C(O)c2ccccc2)c1` (centres undefined): 46.2 min; for `Cc1ccc(S(=O)(=O)NC(=O)NC2CCCCC2)cc1`: above 120 min.
Molecule `C[C@@H]1C[C@H]2[C@@H]3C[C@H](F)C4=CC(=O)C(Cl)=C[C@]4(C)[C@@]3(F)[C@@H](O)C[C@]2(C)[C@@]1(O)C(=O)CO` yielded a half-life of 46.3 min.
The same measure for `NC(N)=Nc1nc(CSCC/C(N)=N/S(N)(=O)=O)cs1`: above 120 min; for `Cn1c(=O)c2c(ncn2CCO)n(C)c1=O`: above 120 min; for `CCCCCCCCC=CCCCCCCCC(=O)NCCOC(=O)CC(C(=O)O)S(=O)(=O)O` (centres undefined): above 120 min.
To `COC(=O)/C=C\C(=O)OC` belongs above 120 min; to `CN(C)[C@@H]1C(=O)C(C(N)=O)=C(O)[C@@]2(O)C(=O)C3=C(O)c4c(O)ccc(Cl)c4[C@@H](O)[C@H]3C[C@@H]12`, above 120 min; to `O=C(Cn1cc(SCc2cccc(Cl)c2)c2ccccc21)N1CCCCC1`, 0.84 min.
The same measure for `NC(=O)c1nnn(Cc2cc(Cl)c(C(=O)c3ccc(Cl)cc3)c(Cl)c2)c1N`: above 120 min; for `CNS(=O)(=O)CCc1ccc2[nH]cc(C3CCN(C)CC3)c2c1`: above 120 min.
`COc1cc2ncnc(Nc3cc(Br)c(O)c(Br)c3)c2cc1OC`: the half-life was above 120 min.
`Cc1ccc(Nc2nc3ccccc3c3nnc(C)n23)c(C)c1` displayed a half-life of 6.47 min.
The molecule `O=C1c2ccccc2S(=O)(=O)N1CCCCN1CCN(c2ncccn2)CC1` returned a half-life of 24.5 min.
The same measure for `CN1CCCC(CC2c3ccccc3Sc3ccccc32)C1` (centres undefined): 48.7 min; for `CN1C2CCC(C)(C)C1CC(OC(=O)C(O)(c1cccs1)c1cccs1)C2` (centres undefined): 26.5 min.
The same measure for `Cc1cc(C(C)(C)C)c(O)c(C(C)(C)C)c1`: above 120 min; for `Nc1ncnc2c1ncn2Cc1c(F)cccc1Cl`: above 120 min.
`C[C@]12CCC3c4ccc(O)cc4C[C@@H](CCCCCCCCCS(=O)CCCC(F)(F)C(F)(F)F)[C@H]3[C@@H]1CC[C@@H]2O` (some centres undefined): the half-life was 4.1 min.
With `c1ccc(OCc2ccc(CCCN3CCOCC3)cc2)cc1`, the half-life was found to be 26.7 min.
As for `CCc1c(O)cc(O)c(C(=O)c2ccc(OCCN3CCOCC3)c(OC)c2)c1CC(=O)N(CCOC)CCOC`, the half-life stood at 41.4 min.
To `CCOC(=O)Cn1cccc1-c1nc(-c2ccc(OC)cc2)c(-c2ccc(OC)cc2)s1` belongs 0.96 min.
To `CC(=O)C1=C(c2ccc(Cl)c(Cl)c2)N(C(C)=O)n2cnnc2S1` belongs 4.52 min; to `CCc1cccc2cc(C(O)CNC(C)(C)C)oc12` (centres undefined), 96.4 min.
Take `CC(=O)c1ccc(O)c(C(N)=O)c1`: the half-life was above 120 min.
As to `Cc1cccc(C=NNc2cc(N3CCOCC3)nc(OCCc3ccccn3)n2)c1`, the half-life came to 16 min.
The same measure for `Cc1ccc(C2=Nc3ccccc3N(CC(=O)Nc3ccccc3F)C(=O)C2)cc1C`: 6.23 min.
In turn, `COc1cc(Nc2nc3ccccc3nc2NS(=O)(=O)c2cccc(NC(=O)c3ccc(C)c(OC)c3)c2)cc(OC)c1` returned a half-life of 14 min.
As to `COc1ccc(CNc2nc(N(CCO)CCO)nc3c2ncn3C(C)C)cc1`, the half-life worked out at 35.6 min.
